Assay results taken from patent publication US4518581A, “Imparting low- or anti-cariogenic property to orally-usable products” (Kabushiki Kaisha Hayashibara Seibutsu Kagaku Kenkyujo, priority 1981, dated 1985).

Tests used:
[1] = test system: Streptococcus mutans 6715 strain; experiment: Organic acid formation from saccharides by Streptococcus mutans cells, pH-measurement (Experiment 4); assay type: cell-based; conditions: 37° C., 30 minutes; for pH-Level of the reaction mixture (organic acid formation): cell suspension, Stephan's buffer (pH 7.0), saccharide solution; for organic acid formation from the saccharide: Streptococcus mutans 6715 cells
Procedure: Organic acid formation from some saccharides by Streptococcus mutans was tested: Streptococcus mutans 6715 strain was cultivaed similarly as in EXPERIMENT 1, and the cells, obtained by centrifuging the culture, were washed with 0.9 w/v % sodium chloride solution, followed by additional centrifugation. Two ml of a mixture solution, consisting of 0.2 ml of the cell suspension, prepared from about 100 ml of the culture, 1.5 ml of Stephan's buffer, and 0.3 ml aqueous solution of each saccharide as listed in TABLE II, was incubated at 37° C. for 30 minutes, followed by pH-measurement of the reaction mixture. The Stephan's buffer was prepared by the method as reported by R. M. Stephan et al., Journal of Dental Research, Vol.26, pp.15-41 (1947): One ml of Solution I, prepared by dissolving 17.89 g Na2 HPO4. 12H2 O, 7.92 g KOH and 6.81 g KH2 PO4 in water to give a final volume of 100 ml, was placed in a 100-ml volumetric flask, and mixed with about 90 ml of water. To the flask was added 1 ml of Solution II, prepared by dissolving 4.54 g KH2 PO4, 0.32 g MgSO4.7H2 O, 0.57 g CaSO4.2H2 O and 10 ml of 3.5% hydrochloric acid solution in water to give a final volume of 100 ml. This mixture was diluted with additional water to obtain 100 ml of Stephan's buffer (pH 7.0).
The results are given in TABLE II, wherein the organic acid formation from the saccharides can be estimated by the pH-values.

[2] = target: T1, water-insoluble glucan producing enzyme (Streptococcus downei, UniProt P27470); experiment: Effect of saccharides on formation of water-insoluble glucan from sucrose (Experiment 3); assay type: biochemical, Streptococcus mutans 6715 strain; conditions: 1 ml 4 w/v % sucrose plus 1 ml 4 w/v % saccharide, 0.02 units enzyme, 37° C., 16 hours; for A: amounts of water-insoluble glucan formed: sucrose control 300
T1 construct: endogenous in cells; host or cells: Streptococcus mutans 6715 strain (today S. sobrinus), culture supernatant, ammonium sulfate precipitate, dialyzed
T1 sequence (P27470 39-1592): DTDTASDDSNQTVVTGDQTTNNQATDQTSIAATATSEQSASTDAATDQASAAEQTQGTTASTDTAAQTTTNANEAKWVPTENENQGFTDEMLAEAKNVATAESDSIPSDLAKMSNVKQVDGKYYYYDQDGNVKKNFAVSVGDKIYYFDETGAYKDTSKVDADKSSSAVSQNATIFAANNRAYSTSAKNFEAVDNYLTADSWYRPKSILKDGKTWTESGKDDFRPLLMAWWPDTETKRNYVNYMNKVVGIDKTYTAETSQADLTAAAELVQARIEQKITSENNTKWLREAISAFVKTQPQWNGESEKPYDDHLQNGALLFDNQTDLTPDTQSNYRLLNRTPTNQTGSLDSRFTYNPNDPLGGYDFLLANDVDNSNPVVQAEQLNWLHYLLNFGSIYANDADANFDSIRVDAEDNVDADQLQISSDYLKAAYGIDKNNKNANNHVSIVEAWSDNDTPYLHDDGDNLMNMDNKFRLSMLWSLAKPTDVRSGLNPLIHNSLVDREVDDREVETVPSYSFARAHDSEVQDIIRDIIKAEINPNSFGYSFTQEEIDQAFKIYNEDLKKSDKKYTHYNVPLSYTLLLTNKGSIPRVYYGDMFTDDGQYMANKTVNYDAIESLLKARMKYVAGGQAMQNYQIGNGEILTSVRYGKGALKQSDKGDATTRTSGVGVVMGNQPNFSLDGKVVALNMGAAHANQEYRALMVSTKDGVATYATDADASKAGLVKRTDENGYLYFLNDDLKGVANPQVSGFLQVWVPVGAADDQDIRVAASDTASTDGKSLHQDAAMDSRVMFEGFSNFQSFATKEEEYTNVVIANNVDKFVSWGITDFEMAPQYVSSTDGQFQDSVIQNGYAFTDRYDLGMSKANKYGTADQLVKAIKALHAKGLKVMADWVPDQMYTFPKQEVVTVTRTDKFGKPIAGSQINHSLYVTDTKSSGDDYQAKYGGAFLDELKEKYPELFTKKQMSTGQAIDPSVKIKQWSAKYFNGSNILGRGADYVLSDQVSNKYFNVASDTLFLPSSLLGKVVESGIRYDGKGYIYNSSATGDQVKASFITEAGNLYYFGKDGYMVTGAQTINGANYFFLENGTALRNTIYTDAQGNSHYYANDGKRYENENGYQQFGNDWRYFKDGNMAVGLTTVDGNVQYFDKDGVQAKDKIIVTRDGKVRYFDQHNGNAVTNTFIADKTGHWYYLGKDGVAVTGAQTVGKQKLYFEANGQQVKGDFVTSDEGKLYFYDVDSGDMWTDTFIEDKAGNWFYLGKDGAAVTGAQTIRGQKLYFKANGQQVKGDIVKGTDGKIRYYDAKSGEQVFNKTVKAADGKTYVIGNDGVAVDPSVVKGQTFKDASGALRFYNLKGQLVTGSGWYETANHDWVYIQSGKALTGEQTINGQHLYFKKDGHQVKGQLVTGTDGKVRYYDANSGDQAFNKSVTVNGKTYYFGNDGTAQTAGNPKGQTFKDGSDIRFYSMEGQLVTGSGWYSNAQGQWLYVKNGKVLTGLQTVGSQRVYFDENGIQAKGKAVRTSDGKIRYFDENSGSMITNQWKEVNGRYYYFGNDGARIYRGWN
Procedure: After completion of the cultivation, the culture was separated into cell precipitant and supernatant. Thereafter, to the supernatant was added with ammonium sulfate to give 60% saturation, and the resultant precipitant was dialyzed against 0.1M phosphate buffer (pH 7.2) to obtain an aqueous solution containing the enzyme.
The titers of the enzyme were assayed as follows: A mixture solution, consisting of 1 ml of 0.2M aqueous sucrose solution, 1 ml of water, 1 ml of 0.1M phosphate buffer containing 0.05 w/v % NaN3, and 0.5 ml of the enzyme solution (below 0.05 units), is incubated at 37° C. for 9 hours, followed by centrifugation of the reaction mixture. The resultant precipitant is mixed with 4 ml of 0.5N sodium hydroxide solution, and then incubated at this temperature for an additional one hour to dissolve the precipitant. The amount of water-insoluble glucan formed during the enzymatic reaction is then measured. One unit of the enzyme is defined as the amount of enzyme that transfers 1 μmole glucose from sucrose to the water-insoluble glucan in one minute.
Effects of some saccharides on the formation of water-insoluble glucan were tested: Water-insoluble glucan formation and inhibition thereof were determined according to the enzyme assay method as described in EXPERIMENT 1, except that the mixture solution contained sucrose, or sucrose and each saccharide as listed in TABLE I. The experiment was carried out as follows: A mixture solution, consisting of 1 ml of 4 w/v % aqueous sucrose solution, 1 ml of 4 w/v % aqueous solution of each saccharide as listed in TABLE I, 1.5 ml of 0.1M phosphate buffer containing 0.05 w/v % NaN3, and 0.5 ml of the enzyme solution (0.02 units), was incubated at 37° C. for 16 hours, and the water-insoluble glucan formation in the reaction mixture was determined according to the enzyme assy method.
In a control experiment, 1 ml of the above described saccharide solution was replaced with the same amount of water.
The inhibition degree was calculated with following equation:
Inhibition degree (%)=100-A/B×100
where A and B are respective amounts of the water-insoluble glucan formed (μg/ml) when the mixture solution contained sucrose or sucrose and each of the saccharides.

Structure (SMILES)	pH-Level of the reaction mixture (organic acid formation) [1]	B: inhibition degree on water-insoluble glucan formation [2] [%]	A: amounts of water-insoluble glucan formed [2] [µg/mL]	organic acid formation from the saccharide [1]
OC[C@@H](O)[C@H](O)[C@@H](O)CO [Xylitol]	7.0	7	280	–
OC[C@H](O)[C@@H](O)[C@H](O)[C@H](O)CO[C@H]1O[C@H](CO[C@H]2O[C@H](CO[C@H]3O[C@H](CO[C@H]4O[C@H](CO)[C@@H](O)[C@H](O)[C@H]4O)[C@@H](O)[C@H](O)[C@H]3O)[C@@H](O)[C@H](O)[C@H]2O)[C@@H](O)[C@H](O)[C@H]1O [Isomaltopentaitol, 6^3 -O-α-isomaltosyl isomaltotriitol]	7.0	–	66	no organic acid formation
C[C@@H]1OC(O)[C@H](O)[C@H](O)[C@H]1O (stereo partly drawn) [Rhamnose, L-Rhamnose]	7.0	0	300	–
CO[C@H]1O[C@H](CO)[C@@H](O)[C@H](O)[C@H]1O [Methyl-α-D-Glucose]	7.0	14	–	–
OC[C@H](O)[C@@H](O)[C@H](O)[C@H](O)CO[C@H]1O[C@H](CO)[C@@H](O[C@H]2O[C@H](CO)[C@@H](O)[C@H](O)[C@H]2O)[C@H](O)[C@H]1O [Isopannitol]	7.0	10	270	–
OC[C@H]1O[C@H](O[C@H]2[C@H](O)[C@@H](O)[C@@H](OC[C@H]3OC(O)[C@H](O)[C@@H](O)[C@@H]3O)O[C@@H]2CO)[C@H](O)[C@@H](O)[C@@H]1O (stereo partly drawn) [Isopanose]	7.0	4	282	–
OC[C@@H](O)[C@@H](O[C@H]1O[C@H](CO)[C@@H](O[C@H]2O[C@H](CO)[C@@H](O[C@H]3O[C@H](CO)[C@@H](O[C@H]4O[C@H](CO)[C@@H](O)[C@H](O)[C@H]4O)[C@H](O)[C@H]3O)[C@H](O)[C@H]2O)[C@H](O)[C@H]1O)[C@H](O)[C@@H](O)CO [Maltopentaitol]	7.0	12	265	–
OC[C@H]1OC(O)[C@H](O)[C@@H](O)[C@H]1O (stereo partly drawn) [D-Galactose]	7.0	–	–	–
OC[C@@H](O)[C@@H](O)CO [Erythlitol]	7.0	3	290	–
OC[C@H](O)[C@@H](O)[C@H](O)[C@H](O)CO[C@H]1O[C@H](CO[C@H]2O[C@H](CO)[C@@H](O)[C@H](O)[C@H]2O)[C@@H](O)[C@H](O)[C@H]1O [Isomaltotriitol, 6-O-α-isomaltosyl glucitol]	7.0	–	60	no organic acid formation
OC[C@@H](O)[C@@H](O[C@@H]1O[C@H](CO)[C@H](O)[C@H](O)[C@H]1O)[C@H](O)[C@@H](O)CO [Lactitol]	7.0	–	–	–
OC[C@@H](O)[C@@H](O[C@H]1O[C@H](CO)[C@@H](O)[C@H](O)[C@H]1O)[C@H](O)[C@@H](O)CO [Maltitol]	7.0	–	–	–
OC[C@H](O)[C@@H](O)[C@H](O)[C@H](O)CO[C@H]1O[C@H](CO)[C@@H](O)[C@H](O)[C@H]1O [Isomaltitol]	7.0	10	270	–
CC(=O)N[C@H]1C(O)O[C@H](CO)[C@@H](O)[C@@H]1O (stereo partly drawn) [N--Acetyl glucosamine]	7.0	5	285	–
O=C(CO)[C@@H](O)[C@H](O[C@H]1O[C@H](CO)[C@@H](O)[C@H](O)[C@H]1O)[C@H](O)CO [Maltulose]	7.0	40	180	–
OC[C@H]1OC(O)[C@H](O)[C@@H](O)[C@@H]1O (stereo partly drawn) [D-Glucose]	4.0	–	–	–
OC[C@@H](O)[C@@H](O[C@H]1O[C@H](CO)[C@@H](O[C@H]2O[C@H](CO)[C@@H](O)[C@H](O)[C@H]2O)[C@H](O)[C@H]1O)[C@H](O)[C@@H](O)CO [Maltotriitol]	7.0	13	262	–
OC[C@H]1O[C@H](OC[C@H]2OC(O)[C@H](O)[C@@H](O)[C@@H]2O)[C@H](O)[C@@H](O)[C@@H]1O (stereo partly drawn) [Isomaltose]	7.0	–	72	–
OC[C@H]1O[C@H](OC[C@H]2OC(O)[C@H](O)[C@@H](O)[C@@H]2O)[C@H](O)[C@@H](O)[C@H]1O (stereo partly drawn) [Melibiose]	7.0	–	300	–
OC[C@H]1O[C@@](CO)(O[C@H]2O[C@H](CO)[C@@H](O)[C@H](O)[C@H]2O)[C@@H](O)[C@@H]1O [Sucrose]	4.0	–	–	–
OC[C@@H](O)[C@@H](O[C@H]1O[C@H](CO)[C@@H](O[C@H]2O[C@H](CO[C@H]3O[C@H](CO)[C@@H](O)[C@H](O)[C@H]3O)[C@@H](O)[C@H](O)[C@H]2O)[C@H](O)[C@H]1O)[C@H](O)[C@@H](O)CO [Isomaltosyl maltitol, 4^2 -O-α--isomaltosyl maltitol]	7.0	–	48	no organic acid formation
OC[C@H]1O[C@@H](OC[C@H]2OC(O)[C@H](O)[C@@H](O)[C@@H]2O)[C@H](O)[C@@H](O)[C@@H]1O (stereo partly drawn) [Gentiobiose]	7.0	–	300	–
OC[C@H]1O[C@H](O[C@H]2[C@H](O)[C@@H](O)[C@@H](O[C@H]3[C@H](O)[C@@H](O)C(O)O[C@@H]3CO)O[C@@H]2CO)[C@H](O)[C@@H](O)[C@@H]1O (stereo partly drawn) [Maltotriose]	5.0	29	213	–
OC[C@H]1O[C@@H](O[C@H]2[C@H](O)[C@@H](O)C(O)O[C@@H]2CO)[C@H](O)[C@@H](O)[C@@H]1O (stereo partly drawn) [Cellobiose]	7.0	–	–	–
OC[C@@H](O)[C@@H](O[C@H]1O[C@H](CO)[C@@H](O[C@H]2O[C@H](CO)[C@@H](O[C@H]3O[C@H](CO)[C@@H](O)[C@H](O)[C@H]3O)[C@H](O)[C@H]2O)[C@H](O)[C@H]1O)[C@H](O)[C@@H](O)CO [Maltotetraitol]	–	21	236	–
OC[C@H]1O[C@H](O[C@H]2[C@H](O)[C@@H](O)[C@H](O)O[C@@H]2CO)[C@H](O)[C@@H](O)[C@@H]1O [Maltose]	4.0	–	–	–
OC[C@H]1OC(O)[C@@H](O)[C@@H](O)[C@@H]1O (stereo partly drawn) [D-Mannose]	5.5	–	–	–
